One block for each compound: values may come before it. Active and inactive are the calls of the source.
Legend:
[1] = biological target: T1, Low molecular weight phosphotyrosine protein phosphatase (Homo sapiens, UniProt P24666); experiment: LMPTP phosphatase inhibitors, dose response, biochemical, OMFP substrate, fluorescence intensity, set 2 (AID 743307); assay type: functional
[2] = biological target: T1, Low molecular weight phosphotyrosine protein phosphatase; experiment: LMPTP phosphatase inhibitors, colorimetric pNPP readout, dose response, orthogonal assay, biochemical, absorbance, pNPP substrate, LMPTP-A isoform, set 2 (AID 743308); assay type: functional
[3] = P. falciparum late gametocyte killing, dose response, luminescence (AID 1117278); assay type: functional, cell-based;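 also: gametocytes exposed to compound for 24 hours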
[4] = Jurkat T cell cytotoxicity, dose response, cytotoxicity control for P. falciparum gametocyte viability project, luminescence (AID 1117277); assay type: functional, cell-based;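 also: potency reflects loss of cellular ATP meaning fewer viable cells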
[5] = A549 cell cytotoxicity, dose response, cytotoxicity control, plate reader, dry powder, set 6 (AID 743312); assay type: functional, cell-based
Protein Tat = Protein Tat (Human immunodeficiency virus type 1 group M subtype B (isolate HXB2)(HIV-1), UniProt P04608); assay type: functional;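 also: tat binding to TAR RNA read out by fluorescence polarization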
[6] = inhibitors of Vif binding to APOBEC3G peptide, primary screen, biochemical, TR-FRET, GST-Vif 1-94, biotin-A3G peptide, dose response retest (AID 1117319); assay type: functional;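 also: TR-FRET signal of purified GST-Vif binding a biotinylated A3G peptide; inhibitors lower the FRET signal by blocking Vif and A3G binding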
[7] = HeLa 2N DNA content increase, dose response, cell-based, IC50 (AID 1117349); assay type: functional
[8] = Concentration-dependent survival of SW480 colon cancer line, luminescence detection with CellTiter-Glo, half-maximal inhibitory concentration (AID 1117338); assay type: functional
[9] = Dose-response inhibition of insulin secretion in a rat insulinoma line at 5 mM glucose (AID 1117331); assay type: functional, cell-based; details: INS-1E
[10] = RKO cell viability reduction, dose response, CellTiter-Glo luminescence (AID 1117322); assay type: functional
[11] = cytotoxicity toward HCT116 cells – cell-based, CellTiter-Glo luminescence, IC50, dose response (AID 1117332); assay type: functional; details: HCT-116
[12] = SNU-C1 cell viability reduction, dose response, CellTiter-Glo luminescence (AID 1117323); assay type: functional, cell-based
[13] = half-maximal inhibitory concentration for glucagon-like peptide-1 release, STC-1 cell line, dose-response (AID 1117345); assay type: functional, cell-based
[14] = cytotoxicity toward Colo320 cells – cell-based, CellTiter-Glo luminescence, IC50, dose response (AID 1117334); assay type: functional; details: COLO 320
[15] = HeLa 4N DNA content increase, dose response, cell-based, IC50 (AID 1117351); assay type: functional
[16] = cytotoxicity toward HT-29 cells – cell-based, CellTiter-Glo luminescence, IC50, dose response (AID 1117330); assay type: functional
[17] = CellTiter-Glo luminescent dose response of DLD-1 viability loss (AID 1117352); assay type: functional
[18] = HCT116 cell viability decrease, GSK3B pretreatment – CellTiter-Glo, IC50, dose response (AID 1117339); assay type: functional; details: HCT-116
[19] = Glucagon-like peptide 1 release potency, NCI-H716 cell line, dose-response, half-maximal inhibitory concentration (AID 1117344); assay type: functional, cell-based

T1 sequence (P24666 whole entry, canonical isoform): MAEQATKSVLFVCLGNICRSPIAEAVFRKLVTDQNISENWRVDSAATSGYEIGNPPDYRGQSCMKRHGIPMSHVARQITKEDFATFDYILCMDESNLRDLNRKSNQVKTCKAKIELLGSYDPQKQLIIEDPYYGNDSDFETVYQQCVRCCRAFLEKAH
Protein Tat, sequence (P04608 whole entry): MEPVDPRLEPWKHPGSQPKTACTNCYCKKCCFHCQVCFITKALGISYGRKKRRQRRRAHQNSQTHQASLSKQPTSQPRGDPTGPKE

- IC50 [1]: 1.4 µM (active)
- IC50 [2]: 3.27 µM (active)
SMILES: Fc1ccc(-c2cc(NCCCN3CCCCC3)c3ccccc3n2)cc1

SMILES: COc1ccccc1OCCOCCOc1ccccc1Cl
- IC50 [3]: > 109 µM (inactive)
- IC50 [4]: > 83.3 µM (inactive)

SMILES: Cc1ccc(C(C)C)c(OCCn2c(S)nc3ccccc32)c1
- AC50 [5]: 22 µM (active)

- IC50 (Protein Tat): 16.3 µM (inconclusive)
- IC50 [6]: > 50.6 µM (active)
SMILES: CCOc1ccccc1N1C(=O)CC(Nc2ccc(N3CCOCC3)cc2)C1=O (stereo not given)

SMILES: CN1CCCC(CC2c3ccccc3Sc3ccccc32)C1 (stereo not given)
- IC50 [7]: > 10 µM (inactive)
- IC50 [8]: 4.7 µM (active)
- IC50 [9]: > 11.1 µM (inactive)
- IC50 [10]: 3.49 µM (active)
- IC50 [11]: > 20 µM (inactive)
- IC50 [12]: 15.1 µM (inactive)
- IC50 [13]: > 40 µM (inactive)
- IC50 [14]: > 20 µM (inactive)
- IC50 [15]: > 10 µM (inactive)
- IC50 [16]: 6.43 µM (inactive)
- IC50 [17]: > 20 µM (inactive)
- IC50 [18]: 8.68 µM (inactive)
- IC50 [19]: > 40 µM (inactive)
